Data from US9040566B2, “Adenosine A1 agonists for the treatment of glaucoma and ocular hypertension” (Bayer Intellectual Property GmbH, priority 2010, dated 2015).

Assays:
rabbits = conditions: literature (Crosson); cited from earlier work
cynomolgus monkeys = conditions: literature (Kaufman et al.); cited from earlier work
New Zealand rabbits = assay: Assessment of blood pressure in telemetric rabbits; type: in vivo; conditions: conscious rabbit, topical, 30 μl
Experimental: B-6. Assessment of Blood Pressure and Heart Rate in Telemetric Rabbits Implantation of Telemetric Senders in Female New Zealand Rabbits:
New Zealand rabbits were used for implantation of the telemetric senders. Rabbits were pre-anaesthetized with Rompun® and Ketavet® i.m. at a dose of 5 mg/kg (in 0.25 ml/kg)+40 mg/kg (in 0.40 ml/kg) respectively. Anaesthesia was maintained with an i.v. infusion of Rompun® and Ketavet® (5-15 ml/h) with a solution of Rompun 2 ml (20 mg/1 ml)+Ketavet 4 ml (100 mg/ml) and 60 ml 0.9% aqueous solution of sodium chloride. Before surgery the hairs at the inner side of the back leg were completely removed and the skin were treated with local anaesthetic Xylocaln® Spray and disinfected with Braunol®. The rabbits were transferred to a sterile surgery unit and covered with sterile swabs and compressions. The skin was opened and the arteria femoralis was carefully dissected free and the pressure catheter of the telemetric implant C50 PXT® (DSI/Data Science International, St. Paul, Minn., U.S.A.) was inserted in the […] and forwarded abdominally under control of the pressure signal. The signal was detected with the RMC1-DSI® receiver plates and visualized with the PONEMAH® physiology platform software DSI/Data Science International, St. Paul, Minn., U.S.A.). After detection of a stable blood pressure signal the catheter was fixed with tissue-glue “Gewebepad” (DSI) and the two ECG electrodes were cut close to the transmitter. The transmitter was fixed under the skin of the rabbit. The wound was closed and finally treated with Nebacetin® Powder Spray. Post-operative analgesia was done with Metamizol i.m. 50 mg/kg in 0.1 ml/kg for 5 days after surgery. In addition a 5 day antibiotic therapy with Terramycin®/LA 20 mg/kg with 0.1 ml/kg was applied i.m. All rabbits recovered fully within one week of the surgery and were after 2 weeks adjustment to the measurement procedure used for the blood pressure detection.
Registration of MAP and HR in Conscious Female New Zealand Rabbits:
The rabbits with telemetric implants were housed for 5 hours in a transportation box which was placed on the RMC1-DSI® receiver plates. The signals were visualized, compiled and analyzed with the PONEMAH® physiology platform software. The systolic (SAP), diastolic (DAP) and mean arterial blood pressure (MAP) levels were registered in mmHg and the heart rate (HR) in beat/minutes was calculated from the interval between the systoles. Baseline levels for SAP, DAP and MAP as for HR were registered over a 2 hour equilibration period. The compounds were dissolved/suspended in a solution of 10% transcutol, 10% solutol and 80% PBS, and given by topical administration at the eye in 30 μl volume. Controls received the corresponding solvents. Baseline levels for SAP, DAP and MAP as for HR were registered over a 3 hour period after application.

[1] = system: Female New Zealand rabbits; assay: IOP measurements in conscious rabbits; type: in vivo; conditions: conscious rabbit, topical, 30 μl
Experimental: B-5. IOP Measurements in Conscious Rabbits
Female New Zealand rabbits with a body weight of about 4-5 kg were used to measure inner eye pressure (IOP). The compounds were dissolved/suspended in a solution of 10% transcutol, 10% solutol and 80% PBS, and given by topical administration at the eye in 30 μl volume. IOP was measured with a rebound tonometer (TonoVet) at different time points after application of the drugs. INO-8875 is a known adenosine A1 agonist having the structure shown below: […]

Normotensive wistar rats = assay: Blood pressure measurement in telemetric rats (conscious, topical administration to the eye); type: in vivo; conditions: conscious rat, 10 mg/ml
Text: B-2. Blood Pressure Measurement in Telemetric Rats
Normotensive wistar rats with a body weight of 300 to 350 g were used for this experimental study. Blood pressure was monitored in freely moving conscious animals by radiotelemetry. Briefly, the telemetric system (DSI Data Science International, MN, USA) is composed on 3 basic elements: implantable transmitters (TA11PA-C40), receivers (RA1010) and a computer-based acquisition software (Dataquest A.R.T 2.1 for Windows). Rats were instrumented with pressure implants for chronic use at least 14 days prior the experiments. Rats were anesthetized with isoflurane (2-3% in O2:N2O=1:2). During catheter implantation under anesthesia, rats were kept on a heating mat. A fluid-filled sensor catheter was inserted upstream into the exposed descending aorta between the iliac bifurcation and the renal arteries. According to the DSI guidelines the tip of the telemetric catheter was located just caudal to the renal arteries and secured by tissue adhesive. The transmitter body was affixed to the inner peritoneal wall before closure of abdomen. In a hardware configuration equipped for 24 animals, each rat cage was positioned on top of an individual receiver platform. After activation of the implanted transmitters, A.R.T., an on-line data acqusition system, samples data and converts telemetric pressure signals into mm Hg. The compounds were dissolved/suspended in an aqueous solution of sodium chloride (0.9%) and administered topically to the eye in 10 μl volume at a concentration of 10 mg/ml. Given are % deviations from the control run-in period of 2 hours before substance administration.

Wistar rats = assay: IOP measurements in rats (anesthetized, topical administration to the eye); type: in vivo; conditions: rat, 10 mg/ml, 10 μl
Experimental: B-1. IOP Measurements in Rats
Wistar rats with a body weight of about 300 g were anesthetized with isoflurane (2-3% in O2:N2O=1:2). The compounds were dissolved/suspended in an aqueous solution of sodium chloride (0.9%) and administered topically to the eye in 10 μl volume at a concentration of 10 mg/ml. IOP was measured with a rebound tonometer (TonoLab) at different time points after application of the compounds. Ocular pressure and effects of hemodynamic parameters can be monitored in this model. N^6-Cyclopentyl-Adenosine (CPA) is a known adenosine A1 agonist having the structure shown below: […]

For `OC[C@H]1O[C@@H](n2cnc3c(NC4CCCCC4)ncnc32)[C@H](O)[C@@H]1O` [CHA, N6-cyclohexyl-adenosine], the “effect on intraocular pressure” value (rabbits) is given as “lower intraocular pressure” and the “effect on intraocular pressure” value (cynomolgus monkeys) is given as “lower intraocular pressure”.

In the case of `O=[N+]([O-])OC[C@H]1O[C@@H](n2cnc3c(NC4CCCC4)ncnc32)[C@H](O)[C@@H]1O` [INO-8875], the “mean arterial pressure (MAP)” value (New Zealand rabbits; 1.0 mg/mL, time 0 min) was 123.9 mm Hg, the “mean arterial pressure (MAP)” value (New Zealand rabbits; 1.0 mg/mL, time 30 min) was 111.3 mm Hg and the “mean arterial pressure (MAP)” value (New Zealand rabbits; 1.0 mg/mL, time 60 min) was 110.9 mm Hg. For the same compound, the “mean arterial pressure (MAP)” value (New Zealand rabbits; 1.0 mg/mL, time 90 min) was 112.6 mm Hg, the “mean arterial pressure (MAP)” value (New Zealand rabbits; 1.0 mg/mL, time 120 min) was 106.0 mm Hg and the “mean arterial pressure (MAP)” value (New Zealand rabbits; 3.0 mg/mL, time 0 min) was 118.5 mm Hg. For the same compound, the “mean arterial pressure (MAP)” value (New Zealand rabbits; 3.0 mg/mL, time 30 min) was 101.8 mm Hg, the “mean arterial pressure (MAP)” value (New Zealand rabbits; 3.0 mg/mL, time 60 min) was 104.9 mm Hg and the “mean arterial pressure (MAP)” value (New Zealand rabbits; 3.0 mg/mL, time 90 min) was 105.7 mm Hg. The “mean arterial pressure (MAP)” value (New Zealand rabbits; 3.0 mg/mL, time 120 min) was 109.0 mm Hg, the “mean arterial pressure (MAP)” value (New Zealand rabbits; 10.0 mg/mL, time 0 min) was 114.5 mm Hg and the “mean arterial pressure (MAP)” value (New Zealand rabbits; 10.0 mg/mL, time 30 min) was 89.5 mm Hg. For the same compound, the “mean arterial pressure (MAP)” value (New Zealand rabbits; 10.0 mg/mL, time 60 min) was 86.9 mm Hg, the “mean arterial pressure (MAP)” value (New Zealand rabbits; 10.0 mg/mL, time 90 min) was 90.3 mm Hg and the “mean arterial pressure (MAP)” value (New Zealand rabbits; 10.0 mg/mL, time 120 min) was 90.0 mm Hg. The “IOP as percent of zero value” ([1]; 1.0 mg/mL, time 0 min) was 100.0%, the “IOP as percent of zero value” ([1]; 1.0 mg/mL, time 30 min) was 85.3% and the “IOP as percent of zero value” ([1]; 1.0 mg/mL, time 60 min) was 86.7%. The “IOP as percent of zero value” ([1]; 1.0 mg/mL, time 90 min) was 93.3%, the “IOP as percent of zero value” ([1]; 1.0 mg/mL, time 120 min) was 100% and the “IOP as percent of zero value” ([1]; 3.0 mg/mL, time 0 min) was 100.0%. For the same compound, the “IOP as percent of zero value” ([1]; 3.0 mg/mL, time 30 min) was 89.3%, the “IOP as percent of zero value” ([1]; 3.0 mg/mL, time 60 min) was 81.3% and the “IOP as percent of zero value” ([1]; 3.0 mg/mL, time 90 min) was 79.0%. The “IOP as percent of zero value” ([1]; 3.0 mg/mL, time 120 min) was 87.3%, the “IOP as percent of zero value” ([1]; 10.0 mg/mL, time 0 min) was 100.0% and the “IOP as percent of zero value” ([1]; 10.0 mg/mL, time 30 min) was 74.0%. For the same compound, the “IOP as percent of zero value” ([1]; 10.0 mg/mL, time 60 min) was 60.0%, the “IOP as percent of zero value” ([1]; 10.0 mg/mL, time 90 min) was 61.3% and the “IOP as percent of zero value” ([1]; 10.0 mg/mL, time 120 min) was 65.0%.

For `OC[C@H]1O[C@@H](n2cnc3c(NC4CCCC4)ncnc32)[C@H](O)[C@@H]1O` [CPA, N^6-Cyclopentyl-Adenosine], the “mean arterial pressure (MAP) as percent change of zero value” (Normotensive wistar rats; time 0.25 h) was −25.4%, the “mean arterial pressure (MAP) as percent change of zero value” (Normotensive wistar rats; time 0.75 h) was −71.3% and the “mean arterial pressure (MAP) as percent change of zero value” (Normotensive wistar rats; time 1.25 h) was −58.9%. For the same compound, the “mean arterial pressure (MAP) as percent change of zero value” (Normotensive wistar rats; time 1.75 h) was −42.6%, the “mean arterial pressure (MAP) as percent change of zero value” (Normotensive wistar rats; time 2.25 h) was −30.3% and the “mean arterial pressure (MAP) as percent change of zero value” (Normotensive wistar rats; time 2.75 h) was −17.6%. For the same compound, the “mean arterial pressure (MAP) as percent change of zero value” (Normotensive wistar rats; time 3.25 h) was −16.4%, the “mean arterial pressure (MAP) as percent change of zero value” (Normotensive wistar rats; time 3.75 h) was −9.0% and the “mean arterial pressure (MAP) as percent change of zero value” (Normotensive wistar rats; time 4.25 h) was −8.4%. For the same compound, the “mean arterial pressure (MAP) as percent change of zero value” (Normotensive wistar rats; time 4.75 h) was −5.3%, the “mean arterial pressure (MAP) as percent change of zero value” (Normotensive wistar rats; time 5.25 h) was −0.7% and the “mean arterial pressure (MAP) as percent change of zero value” (Normotensive wistar rats; time 5.75 h) was −2.9%. The “mean arterial pressure (MAP) as percent change of zero value” (Normotensive wistar rats; time 6.25 h) was −2.7%, the “mean arterial pressure (MAP) as percent change of zero value” (Normotensive wistar rats; time −0.25 h) was 0.0% and the “IOP as percent of zero value” (Wistar rats; time 0 min) was 100.0%. For the same compound, the “IOP as percent of zero value” (Wistar rats; time 15 min) was 65.0%, the “IOP as percent of zero value” (Wistar rats; time 30 min) was 58.5% and the “IOP as percent of zero value” (Wistar rats; time 45 min) was 46.3%. For the same compound, the “IOP as percent of zero value” (Wistar rats; time 60 min) was 42.5%, the “IOP as percent of zero value” (Wistar rats; time 90 min) was 44.8% and the “IOP as percent of zero value” (Wistar rats; time 120 min) was 59.0%.

In the case of `C[C@H](Cc1ccccc1)Nc1ncnc2c1ncn2[C@@H]1O[C@H](CO)[C@@H](O)[C@H]1O` [R-PIA, R(−)-N6-(2-phenylisopropyl)adenosine], the “effect on intraocular pressure” value (rabbits) is given as “lower intraocular pressure” and the “effect on intraocular pressure” value (cynomolgus monkeys) is given as “lower intraocular pressure”.
